Experimental data: ChEMBL document CHEMBL6087404, “Naphthoindole-2-carboxamides as a lipophilic chemotype of hetarene-anthraquinones potent against P-gp resistant tumor cells” (Eur J Med Chem, 2025)
Calls of active or inactive are those of the source. The rule behind the calls is not given here.

Assays:
[1] = Selectivity index, ratio of IC50 for human hFB-hTERT6 cells to IC50 for human K562 cells; type: toxicity; conditions: hFB-hTERT6 cells and K562 cells, read-out: Ratio IC50
[2] = Resistance index, ratio of IC50 for human K562/4 cells to IC50 for human K562 cells; type: functional
K562/4 = assay: Antiproliferative activity against human K562/4 cells incubated for 72 hrs by MTT assay; type: functional, cell-based; conditions: K562/4, 72 h
A549 = assay: Antiproliferative activity against human A549 cells incubated for 72 hrs by MTT assay; type: functional, cell-based; conditions: A549, 72 h
[3] = Antiproliferative activity against hFB-hTERT6 cells incubated for 72 hrs by MTT assay; type: toxicity, cell-based; conditions: human
K562 = assay: Antiproliferative activity against human K562 cells incubated for 72 hrs by MTT assay; type: functional, cell-based; conditions: K562, 72 h
[4] = Drug uptake in human HCT-116 cells at 3 uM incubated for 10 mins by confocal microscopy; type: ADME, cell-based; conditions: hct-116, 10 min
[5] = target: T1, DNA topoisomerase 1 (Homo sapiens) (UniProt P11387); assay: Inhibition of Top1 (unknown origin)-mediated unwinding of supercoiled DNA at 5 uM incubated for 30 mins by electrophoretic analysis
T1 sequence (whole entry): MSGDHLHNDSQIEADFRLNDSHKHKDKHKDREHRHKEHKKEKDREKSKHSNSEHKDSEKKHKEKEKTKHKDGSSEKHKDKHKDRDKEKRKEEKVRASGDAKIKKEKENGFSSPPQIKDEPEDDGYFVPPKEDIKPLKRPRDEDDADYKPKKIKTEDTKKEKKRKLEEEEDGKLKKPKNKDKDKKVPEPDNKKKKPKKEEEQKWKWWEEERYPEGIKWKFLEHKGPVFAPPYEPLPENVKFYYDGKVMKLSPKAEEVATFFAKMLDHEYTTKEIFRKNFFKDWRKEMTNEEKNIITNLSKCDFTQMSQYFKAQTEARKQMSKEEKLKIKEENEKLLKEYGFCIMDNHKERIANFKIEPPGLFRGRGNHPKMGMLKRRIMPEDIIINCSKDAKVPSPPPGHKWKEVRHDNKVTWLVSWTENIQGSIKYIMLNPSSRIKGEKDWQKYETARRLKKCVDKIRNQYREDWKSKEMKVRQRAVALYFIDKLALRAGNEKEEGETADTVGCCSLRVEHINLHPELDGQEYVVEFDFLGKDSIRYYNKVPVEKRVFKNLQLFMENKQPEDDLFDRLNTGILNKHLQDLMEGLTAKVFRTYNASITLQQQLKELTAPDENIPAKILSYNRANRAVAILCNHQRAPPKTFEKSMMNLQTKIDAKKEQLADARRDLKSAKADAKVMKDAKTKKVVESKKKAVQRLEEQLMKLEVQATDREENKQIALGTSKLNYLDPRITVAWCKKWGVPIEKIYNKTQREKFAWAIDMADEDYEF

[6] = Drug uptake in nuclear membrane of human HCT-116 cells at 3 uM incubated for 1 hr by confocal microscopy; type: ADME, cell membranes; conditions: hct-116, 1 h
[7] = Drug uptake in human K562 cells at 2 uM incubated for 3 to 120 hrs by flow cytometry; type: ADME, cell-based; conditions: k562, 2 µM, time 3-120 hrs
DNA = assay: Binding affinity to pBR322 plasmid DNA (unknown origin) assessed as effect on electrophoretic mobility of DNA at 1 to 40 uM incubated for 30 mins; type: nucleic-acid assay; conditions: Escherichia coli, dose 1-40 µM
[8] = Drug uptake in cytoplasmic membrane of human HCT-116 cells at 3 uM incubated for 1 hr by confocal microscopy; type: ADME, cell membranes, Cytoplasm membrane; conditions: hct-116, 1 h
[9] = Drug uptake in lysosome of human HCT-116 cells at 3 uM incubated for 1 hr by LysoTracker Deep Red dye based confocal microscopy; type: ADME, subcellular; conditions: hct-116, 1 h
[10] = Drug uptake in P-gp+ human […] cells at 3 uM incubated for 10 mins by confocal microscopy; type: ADME, cell-based; conditions: k562/4, 10 min

SMILES | selectivity ratio [1] | Ratio IC50 [2] | IC50 (K562/4) [µM] | IC50 (A549) [µM] | IC50 at 72 h [3] [µM] | IC50 (K562) [µM] | Drug uptake [4] | inhibition [5] | Drug uptake [6] | Drug uptake [7] | Activity (DNA) | Drug uptake [8] | Drug uptake [9] | Drug uptake [10]
N[C@H]1CCN(C(=O)c2cc3c(O)c4c(c(O)c3s2)C(=O)c2ccccc2C4=O)C1 | 6 | 1.2 | 0.4 | 2 | 1.8 | – | – | – | – | – | – | – | – | –
CS(=O)(=O)O.O=C(N[C@@H]1CCNC1)c1cc2c(O)c3c(c(O)c2[nH]1)C(=O)c1ccccc1C3=O | 2.2 | 20.4 | 47 | 4 | 5 | 2.3 | – | – | – | – | – | – | – | –
CS(=O)(=O)O.O=C(NC1CCCNC1)c1cc2c(O)c3c(c(O)c2[nH]1)C(=O)c1ccccc1C3=O (racemic) | 3.7 | 1.9 | 2.3 | 9 | 4.4 | 1.2 | – | – | – | – | – | – | – | –
CS(=O)(=O)O.O=C1c2ccccc2C(=O)c2c1c(O)c1cc(C(=O)N3CCNCC3)[nH]c1c2O | 3.3 | 1.2 | 1.2 | 4.4 | 3.3 | 1 | – | – | – | – | – | – | – | –
CS(=O)(=O)O.N[C@@H]1CCN(C(=O)c2cc3c(O)c4c(c(O)c3[nH]2)C(=O)c2ccccc2C4=O)C1 | 3.3 | 0.9 | 1.2 | 4.3 | 4.3 | 1.3 | – | – | – | – | – | – | – | –
CS(=O)(=O)O.O=C(NC1CCNCC1)c1cc2c(O)c3c(c(O)c2[nH]1)C(=O)c1ccccc1C3=O | 1.4 | 22.8 | 41 | 4.2 | 2.6 | 1.8 | – | – | – | – | – | – | – | –
N[C@H]1CCN(C(=O)c2cc3c(O)c4c(c(O)c3o2)C(=O)c2ccccc2C4=O)C1 | > 31.2 | 1.1 | 1.7 | > 50 | > 50 | 1.6 | – | – | – | – | – | – | – | –
Cc1[nH]c2c(O)c3c(c(O)c2c1C(=O)N1CC[C@H](N)C1)C(=O)c1ccccc1C3=O | 12.5 | 125 | 50 | 1.9 | 5 | 0.4 | Active | Active; Slightly Less Potent | Not_active | Not_active | inactive | Not_active | Active | Active
COc1cccc2c1C(=O)c1c(O)c3c(c(O)c1C2=O)C[C@@](O)(C(=O)CO)C[C@@H]3O[C@H]1C[C@H](N)[C@H](O)[C@H](C)O1 [DOXORUBICIN] | – | – | 14 | – | – | – | – | – | – | – | – | – | – | –
CS(=O)(=O)O.NC1CCCN(C(=O)c2cc3c(O)c4c(c(O)c3[nH]2)C(=O)c2ccccc2C4=O)C1 (racemic) | 1.5 | 0.8 | 1 | 1.2 | 1.8 | 1.2 | – | – | – | – | – | – | – | –
CS(=O)(=O)O.O=C(N[C@H]1CCNC1)c1cc2c(O)c3c(c(O)c2[nH]1)C(=O)c1ccccc1C3=O | 1.6 | 12.3 | 43 | 4.3 | 5.5 | 3.5 | – | – | – | – | – | – | – | –
